Measured values from patent publication US20120118197A1, “BUILDING MATERIALS RESISTANT TO ROOT PENETRATION AND METHODS FOR MAKING THE SAME” (LANXESS DEUTSCHLAND GMBH, priority 2008, published 2012).

Test system: Lupinus albus
Experiment: Greenhouse root penetration test in bitumen membranes (DIN CEN/TS 14416)
Conditions: for No. of emerged plants average: 35 seeds planted; for No. of roots grew into bitumen average / No. of roots stopped at bitumen average / Plant height average: six weeks; for No. of roots grew thoughout bitumen average: average of 3 replicates
Description: A greenhouse study was carried out to compare the effectiveness of different herbicides to prevent root penetration in bitumen roof sealing membranes without killing the plant or adversely affecting it.
The herbicides were incorporated into bitumen 160/220 (thickness 4.5-6 mm) during a standard bitumen manufacturing process. The manufacturing process comprised a step of heating the bitumen mixture before a fibreglass grid was incorporated as a reinforcement of the bitumen membrane.
The herbicides Napropamide (N,N-Diethyl-2-(1-naphthyloxy)propanamide, CAS No. (S)-(+) isomer: 41643-36-1) and Prodiamine (2,4-dinitro-N3,N3-dipropyl-6-(trifluoromethyl)-1,3-benzenediamine, CAS No. 29091-21-2) were formulated as oil dispersion with 25% active ingredient. The (R)-2-(4-chlorine-o-tolyloxy)propionic acid ethyl-hexylester (trader name: ‘HERBITECT™’, 2 ethylhexyl-2-(R)-2-(4-chloro-o-tolylory)propionate) may be obtained from Büsscher & Hoffman, Fabrikstrasse 2, A-4470 Enns, Austria and was formulated as oil dispersion with approx. 95% active ingredient.
Resistance of the bitumen against root penetration was evaluated according to the standard test method known in the art as: DIN CEN/TS 14416 ‘Geosynthetische Dichtungsbahnen—Prüfverfahren zur Bestimmung des Widerstandes gegen Wurzeln, Deutsche Fassung CEN/TS14416:2005’. Bitumen membranes containing Napropamide and Prodiamine, respectively were evaluated at active ingredient concentrations of 0.5%, 0.25%, 0.125% and 0.0625% based on raw bitumen. […] Bitumen membranes without incorporated herbicide were used as a control. Three discs with a diameter of 25 cm were punched out of each bitumen membrane and used for the study.
Unglazed, earthenware flowerpots approx. 22 cm high were filled with a soil-mixture [soil low in calcium/TKS1 (3:1)] to 10 cm from the bottom of the pot. Bitumen discs were put on top of the soil layer and the gap between the disc and the pot was sealed with aquarium silicone sealant. The diameter of the discs was approximately that of the internal diameter halfway up the pots. The bitumen discs were covered with approximately 9 cm soil and a plastic watering pipe was insert into the soil of each pot. Thirty five lupine seeds (Lupinus albus) were planted in the soil and covered with about 1 cm of soil. Two pots filled only with soil were used as a control for seed germination and plant growth.
The seeds were growing in a greenhouse under artificial light (14 h photoperiod, 20-22° C., relative humidity 60%). The soil above the bitumen disc was watered with rain water led through the plastic pipe into the pots so that the surface of the bitumen was kept damp. The soil beneath the bitumen discs was kept moist by standing from time to time the pots in water-filled trays. After six weeks the soil of the pots was removed from the roots by gentle running water. The bottom side of bitumen membranes was inspected to see whether any roots have grown through the bitumen, and the upper side was examined to assess the number of roots penetrating the bitumen and the depth of penetration. During the assessments, bitumen discs, roots, and above ground parts of the plants were recorded.

[1] = 0.38% active ingredient based on raw bitumen
[2] = 0.0625% active ingredient based on raw bitumen
[3] = 0.0625% active ingredient, replicate 1
[4] = 0.0625% active ingredient, replicate 2
[5] = 0.0625% active ingredient, replicate 3
[6] = 0.125% active ingredient based on raw bitumen
[7] = 0.125% active ingredient, replicate 1
[8] = 0.125% active ingredient, replicate 2
[9] = 0.125% active ingredient, replicate 3
[10] = 0.25% active ingredient based on raw bitumen
[11] = 0.25% active ingredient, replicate 1
[12] = 0.25% active ingredient, replicate 2
[13] = 0.25% active ingredient, replicate 3
[14] = 0.5% active ingredient based on raw bitumen
[15] = 0.5% active ingredient, replicate 1
[16] = 0.5% active ingredient, replicate 2
[17] = 0.5% active ingredient, replicate 3

Row | Compound | No. of roots grew into bitumen average [2] | No. of roots stopped at bitumen average [2] | No. of roots grew thoughout bitumen average (0.0625% active ingredient) | No. of roots grew thoughout bitumen (3 replicates shown) [3] | No. of roots grew thoughout bitumen (3 replicates shown) [4] | No. of roots grew thoughout bitumen (3 replicates shown) [5] | No. of roots grew into bitumen average [6] | No. of roots stopped at bitumen average [6] | No. of roots grew thoughout bitumen average (0.125% active ingredient) | No. of roots grew thoughout bitumen (3 replicates shown) [7] | No. of roots grew thoughout bitumen (3 replicates shown) [8] | No. of roots grew thoughout bitumen (3 replicates shown) [9] | No. of roots grew into bitumen average [10] | No. of roots stopped at bitumen average [10] | No. of roots grew thoughout bitumen average (0.25% active ingredient) | No. of roots grew thoughout bitumen (3 replicates shown) [11] | No. of roots grew thoughout bitumen (3 replicates shown) [12] | No. of roots grew thoughout bitumen (3 replicates shown) [13] | No. of roots grew into bitumen average [14] | No. of roots stopped at bitumen average [14] | further results
1 | CCCCC(CC)COC(=O)[C@@H](C)Oc1ccc(Cl)cc1C (stereo partly drawn) [Herbitect, (R)-2-(4-chlorine-o-tolyloxy)propionic acid ethyl-hexylester] | – | – | – | – | – | – | – | – | – | – | – | – | – | – | – | – | – | – | – | – | No. of emerged plants average [1]: 33.0; No. of roots grew into bitumen average [1]: 46.7; No. of roots stopped at bitumen average [1]: approx. >50; Plant height average [1]: 34.0 cm; No. of roots grew thoughout bitumen average (0.38% active ingredient): 0; No. of roots grew thoughout bitumen (3 replicates shown) (0.38% active ingredient, replicate 1): 0; No. of roots grew thoughout bitumen (3 replicates shown) (0.38% active ingredient, replicate 2): 0; No. of roots grew thoughout bitumen (3 replicates shown) (0.38% active ingredient, replicate 3): 0; Penetration of upper side of bitumen compared to the untreated bitumen (at 0.38%): penetrated to less extent; Root penetration throughout bitumen (standard product, 0.38%): without any root penetration
2 | CCN(CC)C(=O)C(C)Oc1cccc2ccccc12 (centres unmarked) [Napropamide, N,N-Diethyl-2-(1-naphthyloxy)propanamide] | approx. >50 | approx. >50 | 1.3 | 1 | 1 | 2 | approx. >50 | approx. >50 | 0.7 | 0 | 2 | 0 | 40.0 | approx. >50 | 0.3 | 0 | 0 | 1 | 30.3 | approx. >50 | No. of roots grew thoughout bitumen average (0.5% active ingredient): 0.3; No. of roots grew thoughout bitumen (3 replicates shown) [15]: 1; No. of roots grew thoughout bitumen (3 replicates shown) [16]: 0; No. of roots grew thoughout bitumen (3 replicates shown) [17]: 0; Penetration of upper side of bitumen compared to the untreated bitumen (at 0.5% and 0.25%, respectively): penetrated to less extent; Root elongation through bitumen (at 0.5% and 0.25%, exception in a replicate showing one root penetration): stopped completely; Harm to the remaining plant parts (in vivo): not harmful; Effectiveness to prevent root penetration of bitumen membranes (overall conclusion of the study): highly effective
3 | CCCN(CCC)c1c([N+](=O)[O-])cc(C(F)(F)F)c(N)c1[N+](=O)[O-] [Prodiamine, 2,4-dinitro-N3,N3-dipropyl-6-(trifluoromethyl)-1,3-benzenediamine] | approx. >50 | approx. >50 | 20.3 | 27 | 16 | 18 | approx. >50 | approx. >50 | 12.0 | 12 | 18 | 6 | approx. >50 | approx. >50 | 6.7 | 9 | 6 | 5 | approx. >50 | approx. >50 | No. of emerged plants average [2]: 33.7; Plant height average [2]: 33.7 cm; No. of emerged plants average [6]: 34.7; Plant height average [6]: 32.3 cm; No. of emerged plants average [10]: 34.3; Plant height average [10]: 31.0 cm; No. of emerged plants average [14]: 34.3; Plant height average [14]: 34.0 cm; No. of roots grew thoughout bitumen average (0.5% active ingredient): 2.7; No. of roots grew thoughout bitumen (3 replicates shown) [15]: 1; No. of roots grew thoughout bitumen (3 replicates shown) [16]: 3; No. of roots grew thoughout bitumen (3 replicates shown) [17]: 4; Effectiveness to restrict root growth throughout bitumen (compared to Napropamide and the standard product HERBITECT): slightly less effective
